Data from patent publication US20180200233A1, “COMPOSITIONS FOR PREVENTING CANCERS ASSOCIATED WITH HUMAN PAPILLOMA VIRUSES” (Loma Linda University, priority 2015, published 2018).

B1: TRAIL: tumor necrosis factor-related apoptosis-inducing ligand; extracellular domain of human TRAIL, His-tagged, expressed in E. coli (protein, UniProt P50591 39-281, looked up)
extracellular domain: TNELKQMQDKYSKSGIACFLKEDDSYWDPNDEESMNSPCWQVKWQLRQLVRKMILRTSEETISTVQEKQQNISPLVRERGPQRVAAHITGTRGRSNTLSSPNSKNEKALGRKINSWESSRSGHSFLSNLHLRNGELVIHEKGFYYIYSQTYFRFQEEIKENTKNDKQMVQYIYKYTSYPDPILLMKSARNSCWSKDAEYGLYSIYQGGIFELKENDRIFVSVTNEHLIDMDHEASFFGAFLVG
modifications: extracellular domain His tag
notes: tumor necrosis factor-related apoptosis-inducing ligand; extracellular domain of human TRAIL, His-tagged, expressed in E. coli

Assays:
GST-E6/His-caspase 8 = target: T1, GST-E6/His-caspase 8 (Human papillomavirus type 16, UniProt P03126); assay: AlphaScreen bead-based assay, GST-E6/His-caspase 8 binding; set-up: species or system HPV 16; settings: for inhibition of E6/caspase 8 binding (in words): FIG. 2A, primary screen at 10 μM
T1 construct: made in house
T1 sequence (P03126 whole entry): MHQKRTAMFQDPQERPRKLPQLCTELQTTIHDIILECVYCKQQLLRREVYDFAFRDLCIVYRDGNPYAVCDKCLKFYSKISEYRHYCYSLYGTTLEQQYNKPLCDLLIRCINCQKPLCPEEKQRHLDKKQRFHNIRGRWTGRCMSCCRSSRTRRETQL
Protocol: (§1) FIGS. 2A-C are graphs providing data regarding inhibition of protein-protein interactions by 3-(1H-indol-1yl)propan-1-amine (1), three benzimidazole derivatives (2-4), and spinacine (5). Compounds, at the indicated concentrations (1.4 μM to 3.2 mM) were tested using a bead-based screening assay for their ability to inhibit three different protein/protein interactions: (FIG. 2A) GST-E6/His-caspase 8; (FIG. 2B) GST-E6/HisE6AP; and (FIG. 2C) GST-caspase 8/His-caspase 8. Binding in the presence of 1.4 μM of the test compound was set at 100%. Experiments were performed in triplicate, and error bars indicate the standard deviation.
HPV E6 binds to caspase 8 (Garnett, T. O., M. Filippova, and P. J. Duerksen-Hughes, Accelerated degradation of FADD and procaspase 8 in cells expressing human papilloma virus 16 E6 impairs TRAIL-mediated apoptosis. Cell death and differentiation, 2006. 13(11): p. 1915-26), and myricetin can block the E6/caspase 8 interaction in vitro (Yuan, C. H., et al., Small molecule inhibitors of the HPV16-E6 interaction with caspase 8. Bioorganic & medicinal chemistry letters, 2012. 22(5): p. 2125-9). A bead-based assay based on AlphaScreen™ technology (Perkin-Elmer) is used to identify inhibitors of the E6/caspase 8 interaction (Yuan, C. H., et al., Small molecule inhibitors of the HPV16-E6 interaction with caspase 8. Bioorganic & medicinal chemistry letters, 2012. 22(5): p. 2125-9). The ActiProbe 2K (2,000 compounds) library was screened using the same approach. […] Analysis of the structures and physical/chemical characteristics of those molecules led to the selection of five additional compounds: 3-(1H-indol-1-yl)propan-1-amine methanesulfonate (1), benzimidazole (2), 1H-benzimidazole-1-methanol (3), 2-(methoxymethyl)-1H-benzimidazole (4), and spinacine (5) for further study (FIG. 1).
(§2) To determine the dose-responsiveness of these five compounds, variable concentrations of those small molecules were first tested for their ability to inhibit E6/caspase binding. […] These molecules, which had been selected for their ability to interfere with E6/caspase 8 binding, were then tested to determine if they could also affect other interactions of E6, such as its binding to E6-associated protein (E6AP). The E6/E6AP interaction is required for the E6-mediated acceleration of p53 degradation (Huibregtse, J. M., M. Scheffner, and P. M. Howley, A cellular protein mediates association of p53 with the E6 oncoprotein of human papillomavirus types 16 or 18. The EMBO journal, 1991. 10(13): p. 4129-35).
Alpha-Screen™ technology was used to assess the interactions between GST-E6, GST-caspase 8, His-E6AP, and His-caspase 8. Binding assays were performed in white 384-well plates (Perkin-Elmer) in a total volume of 25 μl as previously described (Tungteakkhun, S. S., et al., The interaction between human papillomavirus type 16 and FADD is mediated by a novel E6 binding domain. Journal of virology, 2008. 82(19): p. 9600-14). Briefly, 5 μl (50 ng) of GST-E6 and 5 μl (87.5 ng) of His-caspase 8 were included in each reaction mixture with 5 μl blocking buffer (0.5 mg BSA, 0.5% Tween 20 in PBS) in the absence or presence of 10 μM of each test chemical. […] The mixture was incubated in the dark at room temperature overnight, and the emitted signal was detected using the Envision Multilabel plate reader (Perkin-Elmer). In the presence of test chemicals, the binding affinity was calculated as a percentage of the binding in the presence of carrier only (DMSO).

GST-E6/His-E6AP = target: T2, GST-E6/His-E6AP (Human papillomavirus type 16, UniProt P03126); assay: AlphaScreen bead-based assay, GST-E6/His-E6AP binding; set-up: species or system HPV 16; settings: for inhibition of E6/E6AP interaction (in words): FIG. 2B
T2 construct: made in house
T2 sequence (P03126 whole entry): as above
Protocol: as §1, §2
(§3) Alpha-Screen™ technology was used to assess the interactions between GST-E6, GST-caspase 8, His-E6AP, and His-caspase 8. Binding assays were performed in white 384-well plates (Perkin-Elmer) in a total volume of 25 μl as previously described (Tungteakkhun, S. S., et al., The interaction between human papillomavirus type 16 and FADD is mediated by a novel E6 binding domain. Journal of virology, 2008. 82(19): p. 9600-14). Briefly, 5 μl (50 ng) of GST-E6 and 5 μl (87.5 ng) of His-caspase 8 were included in each reaction mixture with 5 μl blocking buffer (0.5 mg BSA, 0.5% Tween 20 in PBS) in the absence or presence of 10 μM of each test chemical. Members of the library were present at […] in DMSO. After a one-hour incubation of the mixture at room temperature, 5 μl donor beads and 5 μl acceptor beads (Perkin-Elmer) were added to each well according to the manufacturer's protocol. The mixture was incubated in the dark at room temperature overnight, and the emitted signal was detected using the Envision Multilabel plate reader (Perkin-Elmer). In the presence of test chemicals, the binding affinity was calculated as a percentage of the binding in the presence of carrier only (DMSO).

[1] = target: T3, GST-caspase 8/His-caspase 8 (Homo sapiens, UniProt Q14790); assay: AlphaScreen counter-screen, GST-caspase 8/His-caspase 8 binding; settings: for inhibition of caspase 8/caspase 8 interaction (in words): FIG. 2C
T3 construct: pTriEx-Caspase-8 DED plasmids; fused on or other part: GST tag on one copy, His tag on the other (AlphaScreen bead handles)
T3 sequence (Q14790 whole entry, the tested form may be a part): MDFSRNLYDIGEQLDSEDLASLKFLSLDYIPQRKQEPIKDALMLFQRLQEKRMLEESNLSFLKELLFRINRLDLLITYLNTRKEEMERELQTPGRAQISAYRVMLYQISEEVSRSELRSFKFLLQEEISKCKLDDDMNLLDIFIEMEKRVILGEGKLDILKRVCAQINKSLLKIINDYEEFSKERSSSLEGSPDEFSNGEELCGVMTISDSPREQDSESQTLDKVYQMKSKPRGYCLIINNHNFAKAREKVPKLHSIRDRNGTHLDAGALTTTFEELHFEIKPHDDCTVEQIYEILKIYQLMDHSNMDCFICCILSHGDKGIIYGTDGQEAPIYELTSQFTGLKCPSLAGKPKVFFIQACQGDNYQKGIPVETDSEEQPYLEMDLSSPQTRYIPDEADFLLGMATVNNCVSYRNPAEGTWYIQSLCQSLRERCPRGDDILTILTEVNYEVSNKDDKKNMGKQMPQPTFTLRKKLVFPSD
Protocol: as §1
To ask whether this inhibition was specific, a counter-screening assay was employed the ability of candidates to inhibit the binding of GST-caspase 8 to His-caspase 8 was assessed; those that did were to be eliminated. In this counter-screening assay, the materials in each well were the same as in the primary screen, with the exception that GST-caspase 8 replaced GST-E6.
as §3

SiHa cells = assay: MTT cell viability, SiHa cells, TRAIL-induced apoptosis; format: cell-based, human; settings: SiHa cells in comparison to U2OS cells; with cycloheximide 5 μg/ml, FIG. 3A
Protocol: FIGS. 3A-E are graphs providing data regarding resistance of HPV^+ SiHa cells to TRAIL-, cisplatin- and […] apoptosis, in the presence and absence of small molecules as disclosed herein. (FIG. 3A) HPV^+ SiHa cells are resistant to TRAIL-induced apoptosis as compared to the human osteosarcoma cell line U2OS. Cells (2×10^4 cells per well) were seeded into a 96-well plate, allowed to incubate overnight, and then treated with indicated concentration of TRAIL in the presence of cycloheximide (5 μg/ml). The viability of cells was measured after overnight incubation using the MTT assay; the viability of cells untreated with TRAIL was set at 100% for each group. (FIG. 3B) The indicated concentrations of three small molecules were added to SiHa cells, and an MTT assay was preformed after overnight incubation. The viability of cells untreated with small molecules was set as 100%. (FIG. 3C) The indicated concentrations of myricetin or spinacine were added 4 h prior to TRAIL (100 ng/ml) in the presence of cycloheximide (5 μg/ml) and incubated at 37° C. overnight. The viability of cells untreated with small molecules was set at 100%. (FIG. 3D and FIG. 3E) SiHa cells (2×10^4 cells per well) were seeded into a 96-well plate and allowed to incubate overnight. 100 μM of myricetin and 50 μM of spinacine were added 4 h prior to either (FIG. 3D) doxorubicin or (FIG. 3E) cisplatin. Cell viability was measured after overnight incubation using the MTT assay, and the viability of cells untreated with either myricetin or spinacine was set at 100%. Experiments were performed in triplicate, and error bars indicate the standard deviation.
FIGS. 5A-B are graphs showing myricetin and spinacine (5) re-sensitized HPV^+, but not HPV^−, cells to treatment with TRAIL. SiHa (2×10^4 cells per well) and C33A cells (1×10^4 cells per well) were seeded into a 96-well plate and allowed to incubate overnight, then cells were pre-treated in the presence or absence of myricetin (100 μM) (FIG. 5A) or spinacine (50 μM) (FIG. 5B) for 4 h. The indicated concentration of TRAIL, along with cycloheximide (5 μg/ml) was added and cells were allowed to incubate overnight. Cell viability was measured by MTT assay, and the viability of cells untreated with TRAIL was set at 100%. Experiments were performed in triplicate, and error bars indicate the standard deviation.
The molecules were then tested to determine whether those that block E6/caspase 8 binding in vitro could also act in the context of a cell. SiHa cells are an HPV^+ cell line, derived from a cervical carcinoma, which serves as a commonly used model for HPV-associated malignancies. To determine whether HPV^+ SiHa cells are resistant to TRAIL-induced apoptosis, SiHa cells were treated with TRAIL and cell viability was assessed. TRAIL-sensitive, HPV^− U2OS cells served as a positive control. […] Myricetin and/or spinacine were tested to determine if they could sensitize these HPV^+ cells to TRAIL-induced apoptosis. […] Table 2 lists and compares the concentrations of the three tested compounds required to induce death in 50% of SiHa cells in the presence or absence of TRAIL.
The extracellular domain of human TRAIL was cloned into a pTriEx expression plasmid containing N-terminal Hisx6 tag. His-TRAIL was expressed in the E. coli BL-21 pLys strain and purified as previously described. Doxorubicin and cisplatin were purchased from Sigma. His-TRAIL, doxorubicin, and cisplatin were diluted in PBS to the desired concentration before using. To measure cell survival following treatment with TRAIL, cisplatin and doxorubicin, SiHa (2×10^4/well), C33A (1×10^4/well), and HNSCC cells (2×10^4/well) were seeded into 96-well plates and allowed to adhere overnight. Small molecules at the desired concentration were added and incubated at 37° C. for 4 h. As indicated, TRAIL, cisplatin or doxorubicin was then added. […]

[2] = tested on: UPCI-SCC90-UP-Clone 35 (#90) cells; assay: MTT cell viability, HPV+ HNSCC cell line #90 with TRAIL; format: cell-based; settings: all selected cell lines; TRAIL as high as 100 ng/ml, FIG. 7A
Protocol: FIGS. 7A-E are graphs showing myricetin and spinacine (5) re-sensitized HPV^+, but not HPV^−, head and neck cancer cell lines to treatment with TRAIL. (FIG. 7A) Both HPV^− and HPV^+ HN cancer cell lines display resistance to TRAIL treatment. HPV^− (#84) (Myricetin—FIG. 7B; Spinacine—FIG. 7C) and HPV^+ (#90) (FIG. 7D; Spinacine—FIG. 7E) head and neck cancer cell lines (2×10^4 cells per well) were seeded into 96-well plates and allowed to incubate overnight, then cells were pre-treated with myricetin (0-200 μM) or spinacine (0-100 μM) for 4 h. […] of TRAIL, along with cycloheximide (5 μg/ml) was added and cells were allowed to incubate overnight. Cell viability was measured by the MTT assay, and the viability of cells untreated with small molecules was set at 100%. Experiments were performed in triplicate, and error bars indicate the standard deviation.
As shown above, myricetin and spinacine sensitize SiHa cells to TRAIL and chemotherapy drugs. […] Other types of HPV^+ cancer cells were examined, and in particular, head and neck squamous cell carcinoma (HNSCC) cells can also be sensitized in this manner. […] For the combination experiments, 50 ng/ml TRAIL was applied in combination with either myricetin (0-200 μM) or spinacine (0-100 μM). […] In contrast […], TRAIL-induced cell death was enhanced 30% in UPCI-SCC90-UP-Clone 35, #90. Furthermore, 40 μM spinacine was able to enhance TRAIL-induced cell death in the HPV^+ #90 cell lines up to 50%.
The extracellular domain of human TRAIL was cloned into a pTriEx expression plasmid containing N-terminal Hisx6 tag. His-TRAIL was expressed in the E. coli BL-21 pLys strain and purified as previously described. Doxorubicin and cisplatin were purchased from Sigma. His-TRAIL, doxorubicin, and cisplatin were diluted in PBS to the desired concentration before using. […] All experiments were repeated at least three times (three biological replicates, carried out on different days), with each experimental group measured in triplicate within each of these individual experiments. […]

[3] = bead-based assay, compounds tested 1.4 μM to 3.2 mM

Molecule	inhibition of E6/caspase 8 binding (in words) (GST-E6/His-caspase 8)	inhibition of E6/E6AP interaction (in words) (GST-E6/His-E6AP)	inhibition of caspase 8/caspase 8 interaction (in words) [1]	further results
CS(=O)(=O)O.NCCCn1ccc2ccccc21 [Compound 1, 3-(1H-indol-1-yl)propan-1-amine methanesulfonate]	dose-dependent inhibition	could also inhibit the E6/E6AP interaction	able to inhibit the caspase 8/caspase 8 interaction	–
c1ccc2[nH]cnc2c1 [Compound 2, benzimidazole]	dose-dependent inhibition	could also inhibit the E6/E6AP interaction	able to inhibit the caspase 8/caspase 8 interaction	–
COCc1nc2ccccc2[nH]1 [Compound 4, 2-(methoxymethyl)-1H-benzimidazole]	–	–	–	EC50 for GST-E6/His-caspase 8 interaction (GST-E6/His-caspase 8; [3]): No inhibition; EC50 for GST-E6/His-E6AP interaction (GST-E6/His-E6AP; [3]): No inhibition; EC50 for GST-caspase 8/His-caspase 8 interaction ([1]; compounds tested 1.4 μM to 3.2 mM): No inhibition
B1	–	–	–	response of cells to TRAIL alone (in words) (SiHa cells): relatively resistant; response of HNSCC cell lines to TRAIL alone (in words) [2]: resistance
